ChEMBL document CHEMBL1201862, “PubChem BioAssay data set” (2004)
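A five-concentration, 48-hour dose response in 96-well plates underlies each endpoint, interpolated linearly between surrounding concentrations. GI50: concentration for 50% inhibition of growth.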 Calls of active or inactive are those of the source. Rule as the data show it: active = GI50 up to about 1.1 µM and inactive = higher.

How the values were obtained:
Assay in all cases: growth of human tumour cells (NCI), 48 h
786-0 = system: 786-0
A498 = system: A498
A549 = system: A549
ACHN = system: ACHN
BT-549 = system: BT-549
CAKI-1 = system: CAKI-1
CCRF-CEM = system: CCRF-CEM
COLO 205 = system: COLO 205
DU-145 = system: DU-145
EKVX = system: EKVX
HCC 2998 = system: HCC 2998
HCT-116 = system: HCT-116
HCT-15 = system: HCT-15
HL-60 = system: HL-60
HOP-62 = system: HOP-62
HOP-92 = system: HOP-92
HT-29 = system: HT-29
Hs-578T = system: Hs-578T
IGROV-1 = system: IGROV-1
K562 = system: K562
KM12 = system: KM12
LOX IMVI = system: LOX IMVI
M14 = system: M14
MCF7 = system: MCF7
MDA-MB-231 = system: MDA-MB-231
MDA-MB-435 = system: MDA-MB-435
MDA-N = system: MDA-N
MOLT-4 = system: MOLT-4
Malme-3M = system: Malme-3M
NCI-H226 = system: NCI-H226
NCI-H23 = system: NCI-H23
NCI-H460 = system: NCI-H460
NCI-H522 = system: NCI-H522
NCI/ADR-RES = system: NCI/ADR-RES
OVCAR-3 = system: OVCAR-3
OVCAR-4 = system: OVCAR-4
OVCAR-5 = system: OVCAR-5
OVCAR-8 = system: OVCAR-8
PC-3 = system: PC-3
RPMI-8226 = system: RPMI-8226
RXF 393 = system: RXF 393
SF-268 = system: SF-268
SF-295 = system: SF-295
SF-539 = system: SF-539
SK-MEL-28 = system: SK-MEL-28
SK-MEL-2 = system: SK-MEL-2
SK-MEL-5 = system: SK-MEL-5
SK-OV-3 = system: SK-OV-3
SN12C = system: SN12C
SNB-19 = system: SNB-19
SNB-75 = system: SNB-75
SR = system: SR
SW-620 = system: SW-620
T47D = system: T47D
TK-10 = system: TK-10
U-251 = system: U-251
UACC-257 = system: UACC-257
UACC-62 = system: UACC-62
UO-31 = system: UO-31

Measured: GI50

COC1=CC(=O)c2c(cc(COP(N)(=O)N(CCCl)CCCl)n2C)C1=O (stereo unspecified)
inactive: A498 2.2 µM | COLO 205 1.39 µM | DU-145 1.75 µM | HOP-62 2.18 µM | HOP-92 1.41 µM | Hs-578T 8.26 µM | K562 1.52 µM | KM12 1.49 µM | MDA-MB-231 2.33 µM | MDA-MB-435 1.61 µM | MDA-N 1.61 µM | Malme-3M 1.4 µM | NCI/ADR-RES 3.29 µM | OVCAR-4 3.52 µM | OVCAR-5 1.26 µM | PC-3 1.49 µM | RPMI-8226 1.37 µM | SK-MEL-28 2.9 µM | SK-MEL-2 1.84 µM | SK-MEL-5 1.36 µM | SNB-19 2.64 µM | TK-10 1.67 µM | UACC-257 3.28 µM
1.13 µM: HCT-15
active: 786-0 0.0277 µM | A549 0.918 µM | ACHN < 0.0183 µM | BT-549 0.471 µM | CAKI-1 < 0.0158 µM | CCRF-CEM < 0.0256 µM | EKVX 0.676 µM | HCC 2998 0.446 µM | HCT-116 0.122 µM | HL-60 0.302 µM | HT-29 0.186 µM | IGROV-1 0.17 µM | LOX IMVI 0.0284 µM | M14 0.826 µM | MCF7 0.0767 µM | MOLT-4 0.0141 µM | NCI-H226 0.14 µM | NCI-H23 0.7 µM | NCI-H460 0.123 µM | NCI-H522 0.0746 µM | OVCAR-3 0.342 µM | OVCAR-8 0.433 µM | RXF 393 0.457 µM | SF-268 < 0.032 µM | SF-295 0.189 µM | SF-539 0.0785 µM | SK-OV-3 1.02 µM | SN12C < 0.0241 µM | SNB-75 0.955 µM | SR 0.0603 µM | SW-620 0.158 µM | T47D < 0.0486 µM | U-251 0.0822 µM | UACC-62 0.721 µM | UO-31 0.557 µM

Cc1cc(S(=O)(=O)Nc2nnc3c(C(F)(F)F)cc(Cl)cn23)c(S)cc1Cl
inactive: 786-0 > 100 µM | A498 > 100 µM | A549 > 100 µM | ACHN 48.2 µM | BT-549 > 100 µM | CAKI-1 56.6 µM | CCRF-CEM > 100 µM | COLO 205 > 100 µM | DU-145 > 100 µM | EKVX > 100 µM | HCC 2998 > 100 µM | HCT-116 57.9 µM | HL-60 > 100 µM | HOP-62 > 100 µM | HOP-92 > 100 µM | HT-29 > 100 µM | Hs-578T > 100 µM | IGROV-1 > 100 µM | K562 > 100 µM | KM12 94.8 µM | LOX IMVI > 100 µM | M14 67.1 µM | MCF7 > 100 µM | MDA-MB-231 > 100 µM | MDA-MB-435 76 µM | MDA-N > 100 µM | MOLT-4 74 µM | Malme-3M > 100 µM | NCI-H226 > 100 µM | NCI-H460 45.3 µM | NCI-H522 > 100 µM | NCI/ADR-RES > 100 µM | OVCAR-3 89.5 µM | OVCAR-4 40.3 µM | OVCAR-5 > 100 µM | OVCAR-8 > 100 µM | PC-3 > 100 µM | RPMI-8226 > 100 µM | RXF 393 > 100 µM | SF-268 > 100 µM | SF-539 > 100 µM | SK-MEL-28 > 100 µM | SK-MEL-2 64.4 µM | SK-MEL-5 > 100 µM | SK-OV-3 > 100 µM | SN12C > 100 µM | SNB-19 38.2 µM | SNB-75 90.8 µM | SR 81.7 µM | SW-620 > 100 µM | T47D 70.5 µM | TK-10 > 100 µM | U-251 46.6 µM | UACC-257 > 100 µM | UACC-62 41.5 µM | UO-31 33 µM
> 100 µM: HCT-15

O=C(O)CCC1(C(=O)O)CCC(=O)c2ccccc21 (stereo unspecified)
> 100 µM: HCT-15
inactive: 786-0 > 100 µM | A498 > 100 µM | A549 > 100 µM | ACHN > 100 µM | BT-549 > 100 µM | CAKI-1 > 100 µM | CCRF-CEM > 100 µM | COLO 205 > 100 µM | DU-145 > 100 µM | HCC 2998 > 100 µM | HCT-116 > 100 µM | HL-60 > 100 µM | HOP-62 > 100 µM | HOP-92 > 100 µM | HT-29 > 100 µM | Hs-578T > 100 µM | IGROV-1 > 100 µM | K562 > 100 µM | KM12 > 100 µM | LOX IMVI > 100 µM | M14 > 100 µM | MCF7 > 100 µM | MDA-MB-231 > 100 µM | MDA-MB-435 > 100 µM | MDA-N > 100 µM | Malme-3M > 100 µM | NCI-H226 > 100 µM | NCI-H23 > 100 µM | NCI-H460 > 100 µM | NCI-H522 > 100 µM | NCI/ADR-RES > 100 µM | OVCAR-3 > 100 µM | OVCAR-4 > 100 µM | OVCAR-5 > 100 µM | OVCAR-8 > 100 µM | PC-3 > 100 µM | RPMI-8226 > 100 µM | RXF 393 > 100 µM | SF-268 > 100 µM | SF-295 > 100 µM | SF-539 > 100 µM | SK-MEL-28 > 100 µM | SK-MEL-2 > 100 µM | SK-MEL-5 > 100 µM | SK-OV-3 > 100 µM | SN12C > 100 µM | SNB-19 > 100 µM | SNB-75 > 100 µM | SR > 100 µM | SW-620 > 100 µM | T47D > 100 µM | TK-10 > 100 µM | U-251 > 100 µM | UACC-257 > 100 µM | UACC-62 > 100 µM | UO-31 > 100 µM

CCOC(=O)c1ccc(NC2Oc3cc4c(cc3C(c3cc(OC)c(OC)c(OC)c3)C2C)OCO4)cc1 (stereo unspecified)
inactive: EKVX 4.24 µM | HCC 2998 2.13 µM | Hs-578T 1.24 µM | NCI-H226 1.51 µM | OVCAR-5 3.94 µM | SK-MEL-28 32.4 µM | SN12C 1.35 µM | TK-10 15.6 µM
active: 786-0 0.556 µM | A498 0.566 µM | A549 0.847 µM | ACHN 0.769 µM | BT-549 0.474 µM | CAKI-1 0.325 µM | CCRF-CEM 0.371 µM | COLO 205 0.236 µM | DU-145 0.48 µM | HCT-116 0.465 µM | HL-60 0.209 µM | HOP-62 0.789 µM | HOP-92 0.938 µM | HT-29 0.31 µM | IGROV-1 0.48 µM | K562 0.329 µM | KM12 0.396 µM | LOX IMVI 0.61 µM | M14 0.522 µM | MCF7 0.402 µM | MDA-MB-231 0.516 µM | MDA-MB-435 0.148 µM | MDA-N 0.186 µM | MOLT-4 0.41 µM | Malme-3M 0.216 µM | NCI-H23 0.695 µM | NCI-H460 0.445 µM | NCI-H522 0.416 µM | NCI/ADR-RES 0.369 µM | OVCAR-3 0.352 µM | OVCAR-4 0.649 µM | OVCAR-8 0.935 µM | PC-3 0.376 µM | RPMI-8226 0.296 µM | RXF 393 0.552 µM | SF-268 0.675 µM | SF-295 0.269 µM | SF-539 0.271 µM | SK-MEL-2 0.675 µM | SK-MEL-5 0.294 µM | SK-OV-3 0.483 µM | SNB-19 0.617 µM | SNB-75 0.304 µM | SR 0.296 µM | SW-620 0.339 µM | T47D 0.486 µM | U-251 0.433 µM | UACC-62 0.46 µM | UO-31 0.351 µM
0.506 µM: HCT-15
